Test results as given in patent US10494380B2, “Nitrogen-containing tricyclic derivatives having HIV replication inhibitory activity” (priority 2015, dated 2019).
pEC50, pIC50: −log10 of the molar value. Read-outs that look alike come from different tables or passages of the source.

Experiments:
[1] = test system: HIV (HTLV-IIIB strain); experiment: HIV replication inhibition assay (Test Example 1; MT-4 cells, MTT); format: cell-based; conditions: MT-4 cells, MTT; for pEC50: read-out: EC50; for EC90: read-out: EC90
Method in brief: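 MT-4 cells (2.5×10^4/well) were infected with HIV HTLV-IIIB (60 pfu) in the presence of compound and cultured 4 days at 37 °C. Cell viability was read by MTT reduction (OD 560/690 nm). EC50 and EC90 are the concentrations inhibiting virus-induced cytotoxicity by 50% and 90%.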

[2] = test system: T125A mutant virus (HIV-1 NL-432 recombinant molecular clone, IN gene); experiment: HIV replication inhibition assay against integrase 124/125 mutant virus (Test Example 2); format: cell-based
Method in brief: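 EC50 is the compound concentration blocking half of virus-induced cell death, measured by MTT (OD 560 nm, 690 nm reference) after 4 days at 37 °C. Integrase 124/125 mutant NL-432 virus from transfected 293T cells (60 pfu) was added to 2.5×10^4 MT-4 cells with compound.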

[3] = test system: HIV; format: cell-based; conditions: EC50 in the presence of human serum (25%) versus without human serum, MT-4 cells
Method in brief: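 HIV-infected MT-4 cells (3×10^4/well, infected 1 h at 37° C) are grown 4 days with compound that was first mixed 1 h with human serum or with medium only. Potency shift is the EC50 with serum divided by the EC50 without serum.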

[4] = target: CYP2C9 (Homo sapiens (Human), UniProt P11712); experiment: CYP inhibition assay, tolbutamide methyl-hydroxylation (Test Example 4); format: in vitro ADME; conditions: pooled human hepatic microsome, 100 μmol/L tolbutamide, 15 minutes, 37° C.
CYP2C9, sequence (P11712 whole entry): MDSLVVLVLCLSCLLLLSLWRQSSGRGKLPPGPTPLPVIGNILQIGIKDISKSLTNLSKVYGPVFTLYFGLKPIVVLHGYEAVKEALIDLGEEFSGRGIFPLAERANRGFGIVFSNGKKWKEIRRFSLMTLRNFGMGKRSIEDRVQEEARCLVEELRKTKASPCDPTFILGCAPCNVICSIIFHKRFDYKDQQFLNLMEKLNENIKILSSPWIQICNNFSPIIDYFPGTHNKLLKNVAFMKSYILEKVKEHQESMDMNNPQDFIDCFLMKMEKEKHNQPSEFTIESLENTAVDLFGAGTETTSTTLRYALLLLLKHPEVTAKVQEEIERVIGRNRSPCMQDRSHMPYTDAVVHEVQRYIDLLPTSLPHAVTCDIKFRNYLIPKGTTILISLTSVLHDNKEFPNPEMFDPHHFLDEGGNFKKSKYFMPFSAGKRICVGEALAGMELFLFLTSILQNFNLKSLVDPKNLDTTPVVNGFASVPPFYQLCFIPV
Procedure: Using commercially available pooled human hepatic microsome, and employing, as markers, 7-ethoxyresorufin O-deethylation (CYP1A2), tolbutamide methyl-hydroxylation (CYP2C9), mephenytoin 4′-hydroxylation (CYP2C19), dextromethorphan O-demethylation (CYP2D6), and terfenadine hydroxylation (CYP3A4) as typical substrate metabolism reactions of human main five CYP enzyme forms (CYP1A2, 2C9, 2C19, 2D6, 3A4) an inhibitory degree of each metabolite production amount by a test compound was assessed.
The reaction conditions were as follows: substrate, 0.5 μmol/L ethoxyresorufin (CYP1A2), 100 μmol/L tolbutamide (CYP2C9), 50 μmol/L S-mephenytoin (CYP2C19), 5 μmol/L dextromethorphan (CYP2D6), 1 μmol/L terfenedine (CYP3A4); reaction time, 15 minutes; reaction temperature, 37° C.; enzyme, pooled human hepatic microsome 0.2 mg protein/mL; test drug concentration, 1, 5, 10, 20 μmol/L (four points).
Each five kinds of substrates, human hepatic microsome, and a test drug in 50 mmol/L Hepes buffer as a reaction solution was added to a 96-well plate as the composition ad described above, NADPH, as a coenzyme was added to initiate metabolism reactions as markers and, after the incubation at 37° C. for 15 minutes, a methanol/acetonitrile=1/1 (V/V) solution was added to stop the reaction. After the centrifugation at 3000 rpm for 15 minutes, resorufin (CYP1A2 metabolite) in the supernatant was quantified by a fluorescent multilabel counter and tolbutamide hydroxide (CYP2C9 metabolite), mephenytoin 4′ hydroxide (CYP2C19 metabolite), dextrorphan (CYP2D6 metabolite), and terfenadine alcohol (CYP3A4 metabolite) were quantified by LC/MS/MS.

[5] = test system: sheep red blood cells (RBC); experiment: Photohemolysis test (Test Example 13); format: cell-based; conditions: 0.0008 to 0.1 w/v %, 10 J/cm2 UV-irradiation (290-400 nm)
From the text: Aliquots of sheep red blood cells (RBC) suspension prepared with medium to make a 2.5 v/v % concentration are dispensed into microplates. The compound of the present invention was desolved with a vehicle to make target concentrations and then these solutions were immediately added (in concentrations of 0.0008 to 0.1 w/v %) into the microplates. The mixtures on the microplates were exposed to 10 J/cm2 of UV-irradiation (UV-A and UV-B, 290-400 nm) with a GL20SE lamp (SANKYO DENKI) and a FL20S-BLB lamp (Panasonic). After the UV-irradiation, the mixtures were centrifuged. Aliquots of supernatant were transferred to a microplate. Absorbance of the supernatants was measured at 540 nm and 630 nm for judgement of the potential of phototoxicity. In the study, two endpoints were evaluated in biomembrane impairment (% of photohemolysis index; PI) and hyperoxidation of lipid membrane (methemoglobin formation; met-Hb) with the absorbance at 540 nm and 630 nm, respectively. PI and met-Hb were assessed based on the negative criteria (−), PI<10% and changes in absorbance at 630 nm<0.05, respectively. All else was judged as positive (+).

[6] = target: CYP3A4 (Homo sapiens (Human), UniProt P08684); experiment: CYP3A4 (MDZ) MBI test (Test Example 6); conditions: pooled human liver microsomes, midazolam 1-hydroxylation, preincubation 0 or 30 min
CYP3A4, sequence (P08684 whole entry): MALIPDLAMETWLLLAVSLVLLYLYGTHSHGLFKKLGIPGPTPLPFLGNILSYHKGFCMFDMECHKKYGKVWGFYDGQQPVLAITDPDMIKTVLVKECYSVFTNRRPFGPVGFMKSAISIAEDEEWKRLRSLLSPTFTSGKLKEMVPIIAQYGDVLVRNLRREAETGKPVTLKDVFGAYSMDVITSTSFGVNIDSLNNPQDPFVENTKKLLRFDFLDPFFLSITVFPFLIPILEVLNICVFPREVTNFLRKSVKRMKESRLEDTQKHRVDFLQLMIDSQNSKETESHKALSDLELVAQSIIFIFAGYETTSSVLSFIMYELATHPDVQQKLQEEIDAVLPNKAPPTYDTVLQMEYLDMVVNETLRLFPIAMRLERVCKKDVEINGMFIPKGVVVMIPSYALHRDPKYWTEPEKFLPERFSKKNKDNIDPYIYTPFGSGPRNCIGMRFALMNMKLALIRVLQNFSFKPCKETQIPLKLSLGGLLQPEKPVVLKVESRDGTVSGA

[7] = Human immunodeficiency virus 1, MT4, 96 h, HIV (HTLV-IIIB strain), four days
[8] = Human immunodeficiency virus 1, MT4, read-out: EC50 against T125A mutant virus, T125A mutant virus (HIV-1 NL-432 IN gene), MT-4 cells, MTT
[9] = Human immunodeficiency virus 1, MT4, 96 h, HIV HTLV-IIIB strain, cultured four days
[10] = HIV (HTLV-IIIB strain), four days
[11] = T125A mutant virus (HIV-1 NL-432 IN gene), MT-4 cells, MTT, read-out: EC50 against T125A mutant virus

| SMILES | pEC50 [1, 7] | EC90 [1, 7] [nM] | pEC50 [2, 8] | Potency shift value [3] | pIC50 [4] | Photohemolysis test, potential of phototoxicity (PI and met-Hb) [5] | CYP3A4 (MDZ) MBI, shifted IC [6] | pEC50 [1, 9] | pEC50 [1, 10] | pEC50 [2, 11] | EC90 [1, 10] [nM] |
| --- | --- | --- | --- | --- | --- | --- | --- | --- | --- | --- | --- |
| COc1cnc(N2CCn3c(C)cc4c(-c5ccc(C)cc5)c([C@H](OC(C)(C)C)C(=O)O)c(C)c2c43)nc1 [Compound I-189] | 8.80 | 3.2 | 8.51 | 22 | < 4.70 | (−) (negative criteria (−), PI<10% and changes in absorbance at 630 nm<0.05, respectively) | (−) (When a shifted IC was 1.0 or less, this was defined as negative) | – | – | – | – |
| Cc1ccc(-c2c([C@H](OC(C)(C)C)C(=O)O)c(C)c3c4c2cc(C)n4C(C)CN3CCN(C)C)cc1 (single isomer, unassigned) [Compound I-164] | – | 20 | 7.38 | 2.6 | < 4.70 | (−) (negative criteria (−), PI<10% and changes in absorbance at 630 nm<0.05, respectively) | (−) (When a shifted IC was 1.0 or less, this was defined as negative) | 7.96 | – | – | – |
| Cc1ccc(-c2c([C@H](OC(C)(C)C)C(=O)O)c(C)c3c4c2cc(C)n4CCN3c2ncc(CN(C)C)cn2)cc1 [Compound I-304] | – | – | – | 6.8 | < 4.70 | (−) (negative criteria (−), PI<10% and changes in absorbance at 630 nm<0.05, respectively) | (−) (When a shifted IC was 1.0 or less, this was defined as negative) | – | 8.39 | 8.14 | – |
| Cc1cnc(N2CCn3c(C)cc4c(-c5ccc(Cl)cc5)c([C@H](OC(C)(C)C)C(=O)O)c(C)c2c43)nc1 [Compound I-190] | 9.08 | 1.3 | 8.68 | 21 | < 4.70 | (−) (negative criteria (−), PI<10% and changes in absorbance at 630 nm<0.05, respectively) | (−) (When a shifted IC was 1.0 or less, this was defined as negative) | – | – | – | – |
| Cc1ccc(-c2c([C@H](OC(C)(C)C)C(=O)O)c(C)c3c4c2cc(C)n4CCN3c2ncc(OCCCN(C)C)cn2)cc1 [Compound I-267] | 7.96 | 18 | 7.59 | 4 | < 4.70 | (−) (negative criteria (−), PI<10% and changes in absorbance at 630 nm<0.05, respectively) | (−) (When a shifted IC was 1.0 or less, this was defined as negative) | – | – | – | – |
| Cc1ccc(-c2c([C@H](OC(C)(C)C)C(=O)O)c(C)c3c4c2cc(C)n4CCN3c2nc3c(s2)CN(C)CC3)cc1 [Compound I-293] | 8.51 | 5.5 | 8.03 | 4.8 | < 4.70 | (−) (negative criteria (−), PI<10% and changes in absorbance at 630 nm<0.05, respectively) | (−) (When a shifted IC was 1.0 or less, this was defined as negative) | – | – | – | – |
| Cc1c([C@H](OC(C)(C)C)C(=O)O)c(-c2ccc(Cl)cc2)c2cc(C)n3c2c1N(S(C)(=O)=O)[C@@H](CC(F)F)C3 [Compound I-041] | 8.82 | 2.3 | 7.89 | 4.1 | < 4.70 | (−) (negative criteria (−), PI<10% and changes in absorbance at 630 nm<0.05, respectively) | (−) (When a shifted IC was 1.0 or less, this was defined as negative) | – | – | – | – |
| Cc1ccc(-c2c([C@H](OC(C)(C)C)C(=O)O)c(C)c3c4c2cc(C)n4CCN3c2ncc(OCCN(C)C)cn2)cc1 [Compound I-220] | – | – | – | 3.7 | < 4.70 | (−) (negative criteria (−), PI<10% and changes in absorbance at 630 nm<0.05, respectively) | (−) (When a shifted IC was 1.0 or less, this was defined as negative) | – | 8.22 | 7.85 | 11 |
| CCOc1cnc(N2CCn3c(C)cc4c(-c5ccc(Cl)cc5)c([C@H](OC(C)(C)C)C(=O)O)c(C)c2c43)nc1 [Compound I-181] | – | 2.3 | 8.46 | 17 | < 4.70 | (−) (negative criteria (−), PI<10% and changes in absorbance at 630 nm<0.05, respectively) | (−) (When a shifted IC was 1.0 or less, this was defined as negative) | 8.85 | – | – | – |
| COCC[C@H]1Cn2c(C)cc3c(-c4ccc(Cl)cc4)c([C@H](OC(C)(C)C)C(=O)O)c(C)c(c32)N1S(C)(=O)=O [Compound I-043] | – | – | – | 3.2 | < 4.70 | (−) (negative criteria (−), PI<10% and changes in absorbance at 630 nm<0.05, respectively) | (−) (When a shifted IC was 1.0 or less, this was defined as negative) | – | 8.85 | 7.96 | 2.3 |
| Cc1c([C@H](OC(C)(C)C)C(=O)O)c(-c2ccc(Cl)cc2)c2cc(C)n3c2c1N(c1ncc(OCC2COC2)cn1)CC3 [Compound I-258] | 8.68 | 2.9 | 8.31 | 11 | < 4.70 | (−) (negative criteria (−), PI<10% and changes in absorbance at 630 nm<0.05, respectively) | (−) (When a shifted IC was 1.0 or less, this was defined as negative) | – | – | – | – |
